Data on eleven compounds can be found in ChEMBL document CHEMBL1201862, “PubChem BioAssay data set” (2004).

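Results reflect a 48-hour exposure of cells in 96-well plates to compound at five concentrations. Abbreviation: GI50, concentration required for 50% inhibition of growth.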 Active and inactive are the calls of the source. Cut-off read from the data, not from the text of the source: active = GI50 up to about 1.1 µM and inactive = higher.

What all share (assay): growth of human tumour cells (NCI), 48 h
Experiment [1] has as its system HOP-18.
For experiment [2], the system named is DU-145.
Experiment [3] relates to Hs-578T.
The subject of experiment [4] is T47D.
In experiment [5] the test system is PC-3.
Experiment [6] deals with MDA-MB-435.
For experiment [7], the system named is BT-549.
Experiment [8] concerns RXF 631.
Experiment [9] concerns 786-0.

As for `CCCCc1nccc2c(C)c3[nH]c4ccccc4c3cc12`, the GI50 in experiment [1] was 0.486 µM (active).
Same read-out and setting: the same measure for `CC(C)OP(=O)(OC(C)C)C1=NN(c2ccc([N+](=O)[O-])cc2)C(P(=O)(OC(C)C)OC(C)C)=NN1c1ccc([N+](=O)[O-])cc1`: > 100 µM (inactive).
As for `O=C1CCC[C@H]2O[C@@H](COC(=O)c3ccccc3)C[C@H]2O1`, the GI50 in experiment [2], in [3], in experiment [4], in experiment [5] and in experiment [6] was > 100 µM (inactive) each time.
Regarding `C=C(C[C@@H](O)[C@H](C)NC(=O)OCc1ccccc1)C(=O)OC(C)(C)C`, the GI50 was 45.7 µM (inactive) in experiment [2]; > 100 µM (inactive) in experiment [3]; 13.1 µM (inactive) in experiment [4]; > 100 µM (inactive) in [5]; 95.9 µM (inactive) in experiment [7]; 49.7 µM (inactive) in [6].
Turning to `O=S1(=O)C(=C(c2ccccc2)c2ccccc2)S(=O)(=O)c2ccccc21`, in experiment [1], the GI50 was 51.6 µM (inactive).
Turning to `O=C(NCCN(CCNC(=O)c1cccc(=O)n1O)CCNC(=O)c1cccc(=O)n1O)c1cccc(=O)n1O`, the GI50 in experiment [2], in experiment [3], in experiment [4], in experiment [5], in [7] and in [6] was > 100 µM (inactive) throughout.
As for `Cc1ccc(S(=O)(=O)Oc2cc(-c3ccccc3)nc3ccccc23)cc1`, in experiment [1], the GI50 was 7.62 µM (inactive).
For `Cc1cn([C@@H]2C[C@H](CO)[C@@H](O)C2)c(=O)[nH]c1=O`, the GI50 in experiment [8] and in experiment [1] was > 100 µM (inactive) each time.
On to `COC1C(=O)CCC2(CO2)C1(O)C1(C)OC1CC=C(C)C` (stereo unspecified), for which the GI50 is 19.5 µM (inactive) in [2]; 22.1 µM (inactive) in [3]; > 100 µM (inactive) in experiment [4]; 28.3 µM (inactive) in experiment [5]; 50.6 µM (inactive) in experiment [7]; 24.5 µM (inactive) in experiment [6]. Also, the GI50 in [9] was 32.4 µM (inactive).
With `Cc1ccc(C2C(Cl)C(=O)N2NC(=O)c2ccc(N)cc2)cc1` (stereo unspecified), the GI50 in experiment [9] was 15.5 µM (inactive).
Regarding `Cc1ccc(C(=O)N/N=C(\N=N\c2ccccc2)c2ccc(N(CCC#N)CCC#N)cc2C)cc1`, the GI50 was > 100 µM (inactive) in experiment [2]; 28.2 µM (inactive) in experiment [3]; > 100 µM (inactive) in experiment [4]; 67.9 µM (inactive) in experiment [5]; 45.6 µM (inactive) in experiment [6].
